Laboratory results from patent US20230312601A1, “THIAZOLO[5,4-B]PYRIDINE MALT-1 INHIBITORS” (AbbVie Inc., priority 2022, published 2023).

Columns and labels:
human MALT-1 protein = human MALT-1 protein (Homo sapiens (Human), UniProt Q9UDY8); assay: MALT-1 Biochemical Assay (Quench-FRET enzyme assay); details: human MALT-1 6 nM, substrate 2 μM, 40 min preincubation
Text: A Quenched Fluorescence Resonance Energy Transfer (Quench-FRET) enzyme assay was used to test the ability of exemplary MALT-1 inhibitors Example 1 to Example 39 to inhibit the cleavage of a MALT1 specific quenched fluorescent substrate of sequence [TAMRA-PEG2-Leu-Val-Ser-Arg-Gly-Ala-Ala-Ser-PEG2-K(QSY7) by human MALT-1 protein; where TAMRA is 6-carboxytetramethylrhodamine, PEG2 is 2-(2-(2-aminoethoxy)ethoxyamide linker, QSY7 is a non-fluorescent quenching dye (Thermo-Fisher catalog #Q10193). The assay was performed by pre-dispensing compounds into 384 well Proxiplates™ (PE 6008289). Human MALT-1 (6 nM) was prepared using the assay buffer (25 mM HEPES pH 7.5, 1 mM ethylenediaminetetraacetic acid, 0.8 M sodium citrate, 0.005% Bovine serum albumin (BSA), 2 mM dithiothreitol (DTT)) and added to the compound plates. The plates were incubated 40 minutes at room temperature. The reaction was carried out by adding the substrate (2 μM) to the plates and incubating for 60 minutes at room temperature. A fluorescence readout was then measured using a PE EnVision® reader (Ex.535/Em.590). […] EC50 is defined as the half maximal effective concentration of compound to inhibit MALT-1 protease activity.

OCI-LY3 IL6 = assay: MALT-1 Cell IL-6 AlphaLISA Assay; format: cell-based; details: Homo sapiens; OCI-LY3 cells, 48 hours incubation; read-out: OCI-LY3 IL6 48 hour Inhibition EC50
Protocol: The following MALT-1 Cell Interleukin-6 (IL-6) AlphaLISA assay was conducted using a Perkin Elmer® IL-6 AlphaLISA® detection kit (PE AL223). The IL-6 detection assay is a homogeneous immunoassay that detects human IL-6 present in the cell culture medium in the MALT-1 dependent human ABC-DLBCL cell line, OCI-LY3. Compounds were pre-dispensed into Black 384w microtiter plates (Greiner, 781090) from 30 μM to 1.5 nM. Viable OCI-LY3 cells were then seeded on top of compounds at a seeding density of 50,000 cells/mL. Plates were then placed into 37° C. incubators for 48 hours. After 48 hours incubation, 2 μL of cell medium from each well was transferred into white ProxiPlates™ (PE 6008289). A fresh mix of AlphaLISA Acceptor beads (10 μg/mL) and Biotinylated IL-6 Antibody (1 nM) was made in AlphaLISA Immunoassay buffer and added to all wells (4 μL). The plates were incubated for 60 minutes at room temperature. Streptavidin donor beads (40 μg/mL) were prepared using the assay buffer and added to all wells (5 The plates were incubated for 30 minutes at room temperature and read using PE EnVision® reader. Results are shown in Table 3.

CYP 3A4 mRNA = assay: CYP3A4 Induction Assay (qPCR, human hepatocytes); format: in vitro ADME; details: 10 μM compound, relative to rifampicin 10 μM
Protocol: (§1) CYP induction by compounds of the Examples was evaluated in vitro by determining the expression levels of CYP 3A4 mRNA using the qPCR (quantitative polymerase chain reaction) assay. On day one, cryopreserved human hepatocytes were thawed in prewarmed (37° C.) thawing medium (cryopreserved hepatocyte recovery medium, Gibco™ CM 7000; Thermo Fisher Scientific), centrifuged (1000 g for 10 minutes) and resuspended in plating medium (Gibco™ CM3000—Williams Medium E supplemented with hepatocytes plating supplement pak-serum containing; Thermo Fisher Scientific). Cells were counted by trypan blue exclusion using a hemocytometer and adjusted to a cell density of […]. Thereafter, […] of cell suspension was aliquoted per well in a 96-well plate, resulting in 60,000 cells/well. Plates were shaken in the north-south and east-west direction during plating. Plated cells were incubated at 37° C/5% CO2 in a humidified cell culture incubator for 4-6 hours. During this time, incubation medium (Gibco™ CM4000, cell maintenance supplement pack; Thermo Fisher Scientific) was mixed with Gibco™ Geltrex™ (Thermo Fischer Scientific) at the appropriate GeltrexTM protein concentration. Following recovery, medium was removed from cells and replaced with freshly prepared incubation medium. Cells were incubated overnight in a cell culture incubator (37° C./5% CO2).
(§2) The next day the incubation medium was prepared by combining the hepatocyte maintenance supplement pack with Williams Medium E. The medium was warmed to 37° C. 1000× dimethyl sulfoxide compound stocks of the compounds of the Examples were prepared to the desired concentrations. 10 mM compound stocks in dimethyl sulfoxide were diluted (1 μL to 1 mL CM4000; final concentration=10 μM). Overlay medium was aspirated and […] dose solution added to the desired labeled 96 well plate. Cells were then dosed with compound (10 μM) and prototypical induces at the targeted concentrations either 50 i.tM for omeprazole (Sigma 0104/lotBCBF-2161V) or 10 i.tM for rifampicin (Sigma R3501/lot 011M1159V). A negative control, probenecid, was dosed at 10 i.tM (Sigma P8761/lot 013K0148).
(§3) On day 3, RNA isolation was performed. All surfaces were cleaned using RNase RNAy. Total RNA was isolated using MagMAX Express 96 RNA Isolation System (Life Technologies, AM1830). Briefly, hepatocytes were washed once with 1X PBS (phosphate buffered saline). 145 μL of RNA Lysis Buffer was added to each well and each well was mixed by pipetting several times. Lysate was then transferred to a well of a 96 well Binding Plate. Samples were then mixed with 20 μL magnetic beads coming from the kit. RNA bound to beads was then captured by the magnetic tip manifold and beads were washed with the wash solution. Samples were treated with TURBOTmDNase. After TURBOTmDNase treatment, RNA was rebound to beads and washed with the provided wash buffer an additional two times. Beads are then dried, and RNA was eluted with 50 μL elution buffer. The eluted mRNA was transferred from the wells to RNase-free sealable microtiter plates and stored at -80° C. until use.
(§4) Following mRNA isolation, reverse transcription (RT) reactions were performed using TaqmanTm Reverse Transcription Reagents (ThermoFisher Scientific). RT master mix was prepared by mixing 2.5 μL 10× RT buffer, 5.5 μL 25 mM MgCl2, 5μL deoxyNTP mixture, 1.25 50 mM random hexamers, 0.5 μL 2× RNAse inhibitor, 0.625 μL multiscript RTase (50U/μL) and 0.625 μL water. An aliquot of RT mix (16 μL) and an aliquot of mRNA sample (9 μL) was added to each well of a 96-well plate. The SimpliAmpTM Thermal cycler PCR System VIIA7 from Applied Biosystems was used for reverse transcription under the following conditions: segment 1: 25° C. for 10 minutes; segment 2: 45° C. for 45 minutes; segment 3: 95° C. for 5 minutes; and segment 4: 4° C. hold; with 1 cycle for each segment. […]

CYP3A4 mRNA = assay: CYP3A4 Induction Assay (qPCR, human hepatocytes); format: in vitro ADME; details: cryopreserved human hepatocytes (plated), 10 μM compound, mRNA fold over vehicle (0.1% DMSO)
Protocol: as §1, §2, §3, §4

human MALT-1 protein, sequence (Q9UDY8 whole entry): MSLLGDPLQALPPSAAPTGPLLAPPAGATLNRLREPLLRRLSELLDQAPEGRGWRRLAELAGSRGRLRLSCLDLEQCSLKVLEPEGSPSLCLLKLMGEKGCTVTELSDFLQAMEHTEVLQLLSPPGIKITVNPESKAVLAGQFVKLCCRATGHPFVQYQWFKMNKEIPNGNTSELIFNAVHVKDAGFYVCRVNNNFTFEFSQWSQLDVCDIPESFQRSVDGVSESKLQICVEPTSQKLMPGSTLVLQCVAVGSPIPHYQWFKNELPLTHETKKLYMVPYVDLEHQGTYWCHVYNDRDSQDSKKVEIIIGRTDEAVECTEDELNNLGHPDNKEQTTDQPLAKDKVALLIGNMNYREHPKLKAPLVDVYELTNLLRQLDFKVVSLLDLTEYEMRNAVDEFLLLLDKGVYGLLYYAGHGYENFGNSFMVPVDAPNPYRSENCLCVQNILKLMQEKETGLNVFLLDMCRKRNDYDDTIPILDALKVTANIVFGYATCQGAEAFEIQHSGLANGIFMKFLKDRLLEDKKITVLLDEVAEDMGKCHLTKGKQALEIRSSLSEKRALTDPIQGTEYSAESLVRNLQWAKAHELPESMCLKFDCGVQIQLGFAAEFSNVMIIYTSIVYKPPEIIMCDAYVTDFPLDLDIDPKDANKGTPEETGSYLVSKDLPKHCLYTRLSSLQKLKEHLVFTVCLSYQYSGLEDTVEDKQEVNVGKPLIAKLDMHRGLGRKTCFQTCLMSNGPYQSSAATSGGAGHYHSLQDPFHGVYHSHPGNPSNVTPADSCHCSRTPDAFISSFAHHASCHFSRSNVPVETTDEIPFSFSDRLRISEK

Compound | EC50 (human MALT-1 protein) [µM] | EC50 (OCI-LY3 IL6) [µM] | CYP3A4 % of positive control (%) (CYP 3A4 mRNA) | fold induction at 1 day, 10 µM (CYP3A4 mRNA)
CO[C@@H](c1c(Nc2ccc([C@@H](C(F)F)N(C)C(=O)C3CCS(=O)(=O)CC3)cc2)cnc2sc(C)nc12)C(F)F [Example 13, N-{(1S)-1-[4-({7-[(1S)-2,2-difluoro-1-methoxyethyl]-2-methyl[1,3]thiazolo[5,4-b]pyridin-6-yl}amino)phenyl]-2,2-difluoroethyl}-N-methyl-1,1-dioxo-1λ^6-thiane-4-carboxamide] | 0.193 | 0.42 | (34.8) % | 3.19
CO[C@H](c1c(Nc2ccc([C@H](N(C)C(=O)C3CCN(C(C)=O)CC3)C(F)(F)F)cc2)cnc2sc(C)nc12)C(F)F [Example 18, 1-acetyl-N-{(1,5)-1-[4({7-[(1R)-2,2-difluoro-1-methoxyethyl]-2-methyl[1,3]thiazolo [5,4-b]pyridin-6-yl}amino)phenyl]-2,2,2-trifluoroethyl}-N-methylpiperidine-4-carboxamide] | 0.284 | 1.15 | (16.5) % | 2.8
CO[C@H](c1c(Nc2ccc([C@H](N(C)C(=O)C3CCN(C(=O)CO)CC3)C(F)(F)F)cc2)cnc2sc(C)nc12)C(F)F [Example 21, N-{(1S) -1-[4-({7-[(1R)-2,2-difluoro-1-methoxyethyl]-2-methyl[1,3]thiazolo[5,4-b]pyridin-6-yl}amino)phenyl]-2,2,2-trifluoroethyl}-1-(hydroxyacetyl)-N-methylpiperidine-4-carboxamide] | 0.141 | 0.67 | (5.55) % | 1.29
CO[C@@H](C)c1c(Nc2ccc([C@H](N(C)C(=O)C3CCN(C(=O)CCO)CC3)C(F)(F)F)cc2)cnc2sc(C)nc12 [Example 22, 1-(3-hydroxypropanoyl)-N-methyl-N-{(1S)-2,2,2-trifluoro-1-[4-({7-[(1S)-1-methoxyethyl]-2-methyl[1,3]thiazolo[5,4-b]pyridin-6-yl}amino)phenyl]ethyl}piperidine-4-carboxamide] | 0.228 | 0.38 | (1.16) % | 1.09
CO[C@@H](C)c1c(Nc2ccc([C@H](N(C)C(=O)C3CCN(C(=O)C(C)(C)O)CC3)C(F)(F)F)cc2)cnc2sc(C)nc12 [Example 23, 1-(2-hydroxy-2-methylpropanoyl)-N-methyl-N-{(1S)-2,2,2-trifluoro-1-[4-({7-[(1S)-1-methoxyethyl]-2-methyl[1,3]thiazolo[5,4-b]pyridin-6-yl}amino)phenyl]ethyl}piperidine-4-carboxamide] | 0.139 | 0.21 | (−4.35) % | 0.677
CO[C@@H](C)c1c(Nc2ccc([C@H](N(C)C(=O)C3CCN(C(=O)C(O)CO)CC3)C(F)(F)F)cc2)cnc2sc(C)nc12 (stereo partly drawn) [Example 24, 1-(2,3-dihydroxypropanoyl)-N-methyl-N-{(1S)-2,2,2-trifluoro-1-[4-({7-[(1S)-1-methoxyethyl]-2-methyl[1,3]thiazolo[5,4-b]pyridin-6-yl}amino)phenyl]ethyl}piperidine-4-carboxamide] | 0.979 | 12.2 | (7.62) % | 1.49

Stronger by EC50 (human MALT-1 protein), values ahead:

EC50 (human MALT-1 protein) [µM] | EC50 (OCI-LY3 IL6) [µM] | CYP3A4 % of positive control (%) (CYP 3A4 mRNA) | fold induction at 1 day, 10 µM (CYP3A4 mRNA) | Compound
0.12 | 0.18 | (4.08) % | 1.38 | CO[C@@H](C)c1c(Nc2ccc([C@H](N(C)C(=O)C3CCN(C(=O)CO)CC3)C(F)(F)F)cc2)cnc2sc(C)nc12 [Example 20, 1-(hydroxyacetyl)-N-methyl-N-{(1S)-2,2,2-trifluoro-1-[4-({7-[(1S)-1-methoxyethyl]-2-methyl[1,3]thiazolo [5,4-b]pyridin-6-yl}amino)phenyl]ethyl}piperidine-4-carboxamide]
0.103 | 0.3 | (−4.74) % | 0.413 | CO[C@@H](C)c1c(Nc2ccc([C@H](N(C)C(=O)C3CCS(=O)(=O)CC3)C(F)(F)F)cc2)cnc2sc(C(F)F)nc12 [Example 15, N-{(1 5)-1-[4-({2-(difluoromethyl)-7-[(1S)-1-methoxyethyl][1,3]thiazolo[5,4-b]pyridin-6-yl}amino)phenyl]-2,2,2-trifluoroethyl}-N-methyl-1,1-dioxo-1λ^6-thiane-4-carboxamide]
0.097 | 0.2 | (27.3) % | 2.71 | CO[C@H](c1c(Nc2ccc([C@@H](C(F)F)N(C)C(=O)C3CCS(=O)(=O)CC3)cc2)cnc2sc(C)nc12)C(F)(F)F [Example 14, N-{(1S)-2,2-difluoro-1-[4-({2-methyl-7-[(1R)-2,2,2-trifluoro-1-methoxyethyl][1,3]thiazolo[5,4-b]pyridin-6-yl}amino)phenyl]ethyl}-N-methyl-1,1-dioxo-1λ^6-thiane-4-carboxamide]
0.061 | 0.2 | (31) % | 3.65 | CO[C@H](C)c1c(Nc2ccc([C@@H](C(F)F)N(C)C(=O)C3CCS(=O)(=O)CC3)cc2)cnc2sc(C)nc12 [Example 12, N-{(1S)-2,2-difluoro-1-[4-({7-[(1R)-1-methoxyethyl]-2-methyl[1,3]thiazolo[5,4-b]pyridin-6-yl}amino)phenyl]ethyl}-N-methyl-1,1-dioxo-1λ^6-thiane-4-carboxamide]
